The source of these data is patent publication US20090312396A1, “METHODS FOR CANCER TREATMENT USING TAK1 INHIBITORS” (AstraZeneca AB, priority 2006, published 2009).

SMILES strings stand for the structures. Like-named read-outs stand apart in the source and are kept apart here.

Test [1] has as its system KARPAS-620. As to the kind of experiment: AlamarBlue proliferation assay, GI50. Format: cell-based. Conditions: Homo sapiens, 72 hours, Table 5, read-out: GI50 KARPAS-620 plasma cell leukemia. The protocol: (§1) The TAK1 inhibitors are known in the art (see for example, WO 2003010158, WO 2003010163 and WO2004063186 the disclosures of which are incorporated by reference herein). All cell lines were plated at 10,000 cells/well in flat-bottomed 96 well plates and dosed with test compounds in triplicate over a 10 point dosing range from 0 to 30 μmolesL^−1. All cell lines were incubated with test compounds for a total of 72 hours. Background levels were determined for a control (undosed) plate within 2 hours of dosing test compounds. Following the dosing period, the extent of proliferation was measured by adding 1/10 (vol/vol) AlamarBlue reagent to every well and incubating the plates for a further 4 hours. The reaction was stopped by the addition of SDS to a final concentration of 0.1%. Fluorescence was measured at 545 nm (excitation) and 600 nm (emission). Growth inhibition 50 (GI50) values were determined for each test compound across the panel.
(§2) The experiments to generate the results for both Tables 5 and 6 were performed as described above.
In general terms: Resazurin is reduced to fluorescent resorufin, in cell work by metabolically active cells.

In test [2] the test system is IM-9. Briefly: AlamarBlue proliferation assay, GI50. Type of test: cell-based. Conditions: Homo sapiens, 72 hours, Table 5, read-out: GI50 IM-9 B lymph. The method, then: as §1, §2
For test [3], the system named is Ramos. Briefly: AlamarBlue proliferation assay, GI50. Format: cell-based. Conditions: Homo sapiens, 72 hours, Table 6, read-out: GI50 Ramos Burkitts Lymphoma. The protocol:
as §1, §2

Test [4] relates to MOLP-8. Briefly: AlamarBlue proliferation assay, GI50. Format: cell-based. Conditions: Homo sapiens, 72 hours, Table 5, read-out: GI50 MOLP-8 Multiple myeloma. The protocol:
as §1, §2

The test system of test [5] is NAMALWA. Briefly: AlamarBlue proliferation assay, GI50. Format: cell-based. Conditions: Homo sapiens, 72 hours, Table 6, read-out: GI50 NAMALWA Burkitts Lymphoma. The protocol: as §1, §2
The subject of test [6] is U937. Briefly: AlamarBlue proliferation assay, GI50. Format: cell-based. The following applies: Homo sapiens, U-937, 72 hours, Table 6, read-out: GI50 U937 Histiocytic lymphoma. The method, then:
as §1, §2

The test system of test [7] is JJN-3. Briefly: AlamarBlue proliferation assay, GI50. Format: cell-based. The following applies: Homo sapiens, 72 hours, Table 5, read-out: GI50 JJN-3 plasma cell leukemia. The protocol: as §1, §2
In test [8] the test system is JVM-3. Briefly: AlamarBlue proliferation assay, GI50. Type of test: cell-based. Conditions: Homo sapiens, 72 hours, Table 6, read-out: GI50 JVM-3 B-PLL. The protocol: as §1, §2
Test [9] concerns WSU DLCL2. Briefly: AlamarBlue proliferation assay, GI50. Format: cell-based. The following applies: Homo sapiens, WSUDLCL2, 72 hours, Table 6, read-out: GI50 WSU DLCL2 B cell lymphoma. The method, then: as §1, §2
For test [10], the system named is DERL 2. Briefly: AlamarBlue proliferation assay, GI50. Format: cell-based. Conditions: Homo sapiens, T-cell, 72 hours, Table 6, read-out: GI50 DERL 2 T cell lymphoma. The protocol: as §1, §2
The test system of test [11] is L-363. Briefly: AlamarBlue proliferation assay, GI50. Type of test: cell-based. The following applies: Homo sapiens, 72 hours, Table 5, read-out: GI50 L-363 plasma cell leukemia. The method, then: as §1, §2
Test [12] relates to RPMI-8226. As to the kind of experiment: AlamarBlue proliferation assay, GI50. Type of test: cell-based. The following applies: Homo sapiens, 72 hours, Table 5, read-out: GI50 RPMI-8226 Multiple myeloma. The protocol:
as §1, §2

Test [13] concerns AM0-1. Briefly: AlamarBlue proliferation assay, GI50. Type of test: cell-based. The following applies: Homo sapiens, 72 hours, Table 5, read-out: GI50 AM0-1 plasmacytoma. The protocol:
as §1, §2

Test [14] has as its system JEKO-1. As to the kind of experiment: AlamarBlue proliferation assay, GI50. Type of test: cell-based. Conditions: Homo sapiens, 72 hours, Table 6, read-out: GI50 JEKO-1 MCL. The protocol: as §1, §2
For test [15], the system named is SC-1. As to the kind of experiment: AlamarBlue proliferation assay, GI50. Type of test: cell-based. The following applies: Homo sapiens, 72 hours, Table 6, read-out: GI50 SC-1 FL. The protocol: as §1, §2
Test [16] concerns Raji. Briefly: AlamarBlue proliferation assay, GI50. Type of test: cell-based, human. The following applies: 72 hours. The protocol: as §1
The target in test [17] is T1, TAK1 (Homo sapiens, UniProt O43318).
T1 sequence (O43318 1-606): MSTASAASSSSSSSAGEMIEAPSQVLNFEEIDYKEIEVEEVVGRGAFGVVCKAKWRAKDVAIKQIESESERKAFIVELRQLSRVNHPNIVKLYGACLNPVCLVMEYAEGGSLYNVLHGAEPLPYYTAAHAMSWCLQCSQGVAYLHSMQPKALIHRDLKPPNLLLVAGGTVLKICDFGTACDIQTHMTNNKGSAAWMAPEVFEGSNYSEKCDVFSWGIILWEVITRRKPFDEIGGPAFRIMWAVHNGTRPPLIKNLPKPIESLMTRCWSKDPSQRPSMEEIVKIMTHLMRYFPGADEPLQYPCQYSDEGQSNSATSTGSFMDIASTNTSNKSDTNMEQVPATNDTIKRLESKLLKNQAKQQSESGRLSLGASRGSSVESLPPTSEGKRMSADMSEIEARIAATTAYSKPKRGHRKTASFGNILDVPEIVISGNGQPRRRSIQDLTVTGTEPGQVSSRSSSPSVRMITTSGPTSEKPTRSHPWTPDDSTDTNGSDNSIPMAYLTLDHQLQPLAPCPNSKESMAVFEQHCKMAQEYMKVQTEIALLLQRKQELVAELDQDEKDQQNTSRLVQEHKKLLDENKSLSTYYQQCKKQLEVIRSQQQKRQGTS
T1 sequence (Q15750 1-504 partner): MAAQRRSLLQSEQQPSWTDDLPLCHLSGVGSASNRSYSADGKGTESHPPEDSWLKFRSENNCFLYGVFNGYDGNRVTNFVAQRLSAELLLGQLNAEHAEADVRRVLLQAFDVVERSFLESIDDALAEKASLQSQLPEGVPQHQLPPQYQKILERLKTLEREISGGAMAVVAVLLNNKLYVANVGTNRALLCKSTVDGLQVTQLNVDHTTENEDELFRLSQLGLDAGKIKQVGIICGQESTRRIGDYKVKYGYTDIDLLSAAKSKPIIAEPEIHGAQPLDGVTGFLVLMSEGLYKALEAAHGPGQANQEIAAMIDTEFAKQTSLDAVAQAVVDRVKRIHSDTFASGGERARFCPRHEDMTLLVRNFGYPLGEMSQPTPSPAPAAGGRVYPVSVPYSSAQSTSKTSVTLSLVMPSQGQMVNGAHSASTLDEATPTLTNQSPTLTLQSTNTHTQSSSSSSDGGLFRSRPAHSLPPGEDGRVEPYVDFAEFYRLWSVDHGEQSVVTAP
As to the kind of experiment: TAK1 enzyme inhibition. Type of test: biochemical.

On to `COC(C)(C)CNCc1ccc(-c2cc(NC(N)=O)c(C(N)=O)s2)cc1` [Compound 4, 3-[(aminocarbonyl)amino]-5-(4-{[(2-methoxy-2-methylpropyl)amino]methyl}phenyl)thiophene-2-carboxamide], for which the GI50 in test [1] was found to be 140 nM; in test [2] it was 210 nM; in [3], 210 nM; in test [4], 90 nM; in test [5], 2960 nM; in test [6], 120 nM. Also, the GI50 in test [7] amounted to 520 nM; in test [8] it was 140 nM; in test [9], 1950 nM; in [10], 310 nM; in test [11], 350 nM; in test [12], 1600 nM. Moreover, the GI50 in [13] is 910 nM; in [14], 290 nM; in [15] it was 2880 nM; in test [16] (Table 6, read-out: GI50 Raji Burkitts Lymphoma) it was greater than 30000 nM; in test [16] (Homo sapiens, Raji, Table 4, read-out: GI50 Raji Burkitts Lymphoma), greater than 30000 nM. Further, in [17] (Table 4, read-out: TAK1 pIC50 (enzyme) (converted)), the IC50 was 63.1 nM. For the same compound, the “TAK1 pIC50” value in test [17] (Table 5) was found to be 7.2.

Usually GI50 stands for the concentration that inhibits growth by half.
